Non-standard residues stand in square brackets, D forms with d. Residues, ends and D or L forms follow the SMILES beside them. Phe(4-Cl) = N[C@@H](Cc1ccc(Cl)cc1)C(=O)O; Phe(4-I) = N[C@@H](Cc1ccc(I)cc1)C(=O)O; Nle = CCCC[C@H](N)C(=O)O; Aib = CC(C)(N)C(=O)O
Experiments:
human MC3R = target: T1, human MC3R (Homo sapiens, UniProt P41968); assay: Intracellular cAMP levels in live cells, MC3R agonist activity; assay type: cell-based; conditions: cAMP split-luciferase reporter cell line stably expressing human MC3R; direct agonist effect, measurement window 1
T1 construct: expressed in transfected cells
Procedure: The stable cell lines were grown and maintained in selection media consisting of Dulbecco's modified Eagle media (DMEM) with 4.5 g/l D-glucose, and 4 mM L-glutamine (Thermo Fisher Scientific, Waltham, MA), supplemented with 10% fetal bovine serum, 100 units/ml penicillin, 100 μg/ml streptomycin, 2.5 μg/ml amphotericin B, 200 μg/ml hygromycin B (for positive selection of the GScAMP22f luciferase reporter), and Geneticin™ (G418) 700 μg/ml (for MC3R or MC4R selection). Actual serum concentration during the assay is estimated to be about 1%. Cell line identity is routinely verified by qPCR and MC3R- and MC4R-specific oligonucleotides.
The assay for the determination of the CAMP response in live cells was described previously. […] Ccells were seeded at a density of 20,000 cells per well using 384-well poly-D lysine-coated, clear bottom, and black-wall assay plates (Corning Inc. Corning, NJ). Cells were allowed to attach to the plates for 18 to 24 h after which growth media was removed and 20 ul of 4% D-luciferin (Promega) in CO2 independent, serum-free medium (Thermo Fisher Scientific) was added to each well. […] Intracellular cAMP levels were measured using an FDSS 7000EX Functional Drug Screening System (Hamamatsu Photonics, Hamamatsu, Japan) in the Center for Chemical Genomics at the Life Sciences Institute. This instrument allowed the in-line addition of test-peptides and receptor agonists while simultaneously acquiring the luminescence signal from live cells. […] A submaximal forskolin (20 μM) concentration was also included to serve as a normalization reference to account for cell number variations and differences in assay transducer efficiency between cell lines.
With this set up it was possible to evaluate the direct agonist effect of the test-peptides on the MC3R and MC4R cell lines during measurement window 1, while the antagonist profile in the presence of EC90 α-MSH was determined on measurement window 2. […] EC50 or IC50 potency values were determined by non-linear regression by fitting the data to a sigmoid four-parameter variable slope model using the GraphPad Prism version 8.4 software package (San Diego CA).

human MC4R = human MC4R (Homo sapiens, UniProt P32245); assay: Intracellular cAMP levels in live cells, MC3R selectivity relative to MC4R; assay type: cell-based; conditions: cAMP assays in human MC3R and human MC4R stable cell lines
in vitro = conditions: for half-life at 1 µM / remaining at 5 min, 1 µM / remaining at 0.5 h, 1 µM / remaining at 1 h, 1 µM / remaining at 2 h, 1 µM / remaining at 4 h, 1 µM / remaining at 0.25 h, 1 µM: mouse, plasma
Procedure: Pooled mouse plasma was prepared and stored at −80° C. prior to use. 396 μL mouse plasma was incubated at 37° C. for 5 minutes in 1.5 mL microcentrifuge tubes. 4 μL of 100 μM test or control compound/peptide was added to each tube and incubated for 0.5, 15, 30, 60, 120, or 240 minutes. An aliquot of 40 μL of each reaction was stopped by the addition of 4 volume of cold acetonitrile containing 200 ng/mL of Setmelanotide as an internal standard (IS). The incubation solution was centrifuged at 3500 rpm for 10 minutes to precipitate protein. The supernatant was used for LC/MS/MS analysis. The natural log peak area ratio (compound peak […] area/internal standard peak area) was plotted against time and the gradient of the line determined.

T1 sequence (P41968 whole entry): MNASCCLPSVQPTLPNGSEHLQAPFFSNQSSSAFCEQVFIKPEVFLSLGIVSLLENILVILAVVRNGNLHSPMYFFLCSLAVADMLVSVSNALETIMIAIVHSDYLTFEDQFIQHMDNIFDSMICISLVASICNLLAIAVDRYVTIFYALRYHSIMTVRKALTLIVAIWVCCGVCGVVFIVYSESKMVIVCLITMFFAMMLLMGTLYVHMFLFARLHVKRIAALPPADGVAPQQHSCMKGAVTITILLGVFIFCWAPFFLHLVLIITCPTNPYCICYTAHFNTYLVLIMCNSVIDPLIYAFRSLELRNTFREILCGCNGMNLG
Chain of human MC4R (P32245 whole entry): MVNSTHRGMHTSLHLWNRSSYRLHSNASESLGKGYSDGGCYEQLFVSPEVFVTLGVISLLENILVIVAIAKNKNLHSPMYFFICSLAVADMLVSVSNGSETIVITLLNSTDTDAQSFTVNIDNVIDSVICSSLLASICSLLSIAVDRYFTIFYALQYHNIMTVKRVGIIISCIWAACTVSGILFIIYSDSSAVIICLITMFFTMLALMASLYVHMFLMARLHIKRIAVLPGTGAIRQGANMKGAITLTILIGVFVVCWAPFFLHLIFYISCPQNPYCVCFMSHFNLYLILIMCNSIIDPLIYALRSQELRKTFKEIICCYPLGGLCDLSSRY

With CCCC[C@H](NC(=O)[C@@H](NC(C)=O)C(C)C)C(=O)N[C@H](C)C(=O)N[C@@H](Cc1c[nH]cn1)C(=O)N[C@@H](Cc1ccccc1)C(=O)N[C@@H](CCCNC(=N)N)C(=O)N[C@H](Cc1c[nH]c2ccccc12)C(=O)N[C@@H](CC(=O)O)C(=O)N[C@@H](CCCNC(=N)N)C(=O)N[C@@H](Cc1ccccc1)C(=O)NCC(=O)O [CTX-1121, Val-Nle-D-Ala-His-Phe-Arg-D-Trp-Asp-Arg-Phe-Gly] (Ac-V[Nle][dA]HFR[dW]DRFG-OH) the EC50 (human MC3R) was 3.1 nM, the “MC3R selectivity (relative to MC4R)” value (human MC4R) was 2,123 and the half-life at 1 µM (in vitro) was 138 min. The remaining at 5 min, 1 µM (in vitro) was 118%, the remaining at 0.5 h, 1 µM (in vitro) was 91.1% and the remaining at 1 h, 1 µM (in vitro) was 81.7%. For the same compound, the remaining at 2 h, 1 µM (in vitro) was 68.3%, the remaining at 4 h, 1 µM (in vitro) was 33.1% and the Mouse Plasma Stability, time point 0 min (in vitro; pooled mouse plasma, 37° C.) was 100%. For the same compound, the “Mouse Plasma Stability, time point 15 min” value (in vitro; pooled mouse plasma, 37° C., 15 min, in % (unit assumed)) was 120.25.

For CCCC[C@H](NC(=O)[C@@H](NC(=O)[C@H](N)Cc1ccc(O)cc1)C(C)C)C(=O)N[C@H](C)C(=O)N[C@@H](Cc1c[nH]cn1)C(=O)N[C@@H](Cc1ccccc1)C(=O)N[C@@H](CCCNC(=N)N)C(=O)N[C@H](Cc1c[nH]c2ccccc12)C(=O)N[C@@H](CC(=O)O)C(=O)N[C@@H](CCCNC(=N)N)C(=O)N[C@@H](Cc1ccccc1)C(=O)NCC(=O)O [CTX-1125, D-Tyr-Val-Nle-D-Ala-His-Phe-Arg-D-Trp-Asp-Arg-Phe-Gly] (H-[dY]V[Nle][dA]HFR[dW]DRFG-OH), the EC50 (human MC3R) was 1.7 nM, the “MC3R selectivity (relative to MC4R)” value (human MC4R) was 747 and the half-life at 1 µM (in vitro) was 141 min. It also gave a remaining at 5 min, 1 µM (in vitro) of 93.2%, a remaining at 0.25 h, 1 µM (in vitro) of 105% and a remaining at 0.5 h, 1 µM (in vitro) of 105%. It also gave a remaining at 1 h, 1 µM (in vitro) of 103%, a remaining at 2 h, 1 µM (in vitro) of 79.2% and a remaining at 4 h, 1 µM (in vitro) of 28.8%. It also gave a Mouse Plasma Stability, time point 0 min (in vitro; pooled mouse plasma, 37° C.) of 100%.

In the case of CCCC[C@H](NC(=O)[C@@H](NC(=O)[C@@H](N)Cc1ccc(O)cc1)C(C)C)C(=O)N[C@H](C)C(=O)N[C@@H](Cc1c[nH]cn1)C(=O)N[C@@H](Cc1ccccc1)C(=O)N[C@@H](CCCNC(=N)N)C(=O)N[C@H](Cc1c[nH]c2ccccc12)C(=O)N[C@@H](CC(=O)O)C(=O)N[C@H](CCCNC(=N)N)C(=O)N[C@@H](Cc1ccccc1)C(=O)NCC(=O)O [CTX-1126, Tyr-Val-Nle-D-Ala-His-Phe-Arg-D-Trp-Asp-D-Arg-Phe-Gly] (H-YV[Nle][dA]HFR[dW]D[dR]FG-OH), the EC50 (human MC3R) is reported as 3 nM, the “MC3R selectivity (relative to MC4R)” value (human MC4R) is reported as 43 and the half-life at 1 µM (in vitro) is reported as 1.61 min. For the same compound, the remaining at 5 min, 1 µM (in vitro) was 11.7%, the remaining at 0.25 h, 1 µM (in vitro) was 0.16% and the remaining at 0.5 h, 1 µM (in vitro) was 0.03%. The Mouse Plasma Stability, time point 0 min (in vitro; pooled mouse plasma, 37° C.) was 100%.

In the case of CCCC[C@H](NC(=O)[C@@H](NC(=O)[C@@H](N)Cc1ccc(O)cc1)C(C)C)C(=O)N[C@H](C)C(=O)N[C@@H](Cc1c[nH]cn1)C(=O)N[C@@H](Cc1ccccc1)C(=O)N[C@@H](CCCNC(=N)N)C(=O)N[C@H](Cc1c[nH]c2ccccc12)C(=O)N[C@@H](CC(=O)O)C(=O)N[C@@H](CCCNC(=N)N)C(=O)N[C@H](Cc1ccccc1)C(=O)NCC(=O)O [CTX-1127, Tyr-Val-Nle-D-Ala-His-Phe-Arg-D-Trp-Asp-Arg-D-Phe-Gly] (H-YV[Nle][dA]HFR[dW]DR[dF]G-OH), the EC50 (human MC3R) is reported as 2.5 nM, the “MC3R selectivity (relative to MC4R)” value (human MC4R) is reported as 95 and the half-life at 1 µM (in vitro) is reported as 1.28 min. The remaining at 5 min, 1 µM (in vitro) was 6.71%, the remaining at 0.25 h, 1 µM (in vitro) was 0.25% and the remaining at 0.5 h, 1 µM (in vitro) was 0.27%. The remaining at 1 h, 1 µM (in vitro) was 0.04% and the Mouse Plasma Stability, time point 0 min (in vitro; pooled mouse plasma, 37° C.) was 100%.

In the case of CCCC[C@H](NC(=O)[C@@H](NC(=O)[C@@H](N)Cc1ccc(O)cc1)C(C)C)C(=O)NC(C)(C)C(=O)N[C@@H](Cc1c[nH]cn1)C(=O)N[C@@H](Cc1ccccc1)C(=O)N[C@@H](CCCNC(=N)N)C(=O)N[C@H](Cc1c[nH]c2ccccc12)C(=O)N[C@@H](CC(=O)O)C(=O)N[C@@H](CCCNC(=N)N)C(=O)N[C@@H](Cc1ccccc1)C(=O)NCC(=O)O [CTX-1134, Tyr-Val-Nle-Aib-His-Phe-Arg-D-Trp-Asp-Arg-Phe-Gly] (H-YV[Nle][Aib]HFR[dW]DRFG-OH), the EC50 (human MC3R) is reported as 2.5 nM, the “MC3R selectivity (relative to MC4R)” value (human MC4R) is reported as 566 and the half-life at 1 µM (in vitro) is reported as 2.77 min. For the same compound, the remaining at 5 min, 1 µM (in vitro) was 28.6%, the remaining at 0.25 h, 1 µM (in vitro) was 2.97% and the remaining at 0.5 h, 1 µM (in vitro) was 0.14%. For the same compound, the remaining at 1 h, 1 µM (in vitro) was 0.02% and the Mouse Plasma Stability, time point 0 min (in vitro; pooled mouse plasma, 37° C.) was 100%.

With CCCC[C@H](NC(C)=O)C(=O)N[C@H](C)C(=O)N[C@@H](Cc1c[nH]cn1)C(=O)N[C@@H](Cc1ccccc1)C(=O)N[C@@H](CCCNC(=N)N)C(=O)N[C@H](Cc1c[nH]c2ccccc12)C(=O)N[C@H](Cc1ccccc1)C(=O)N[C@@H](CCCNC(=N)N)C(=O)N[C@@H](Cc1ccccc1)C(=O)NCC(=O)O [CTX-1531, Nle-D-Ala-His-Phe-Arg-D-Trp-D-Phe-Arg-Phe-Gly] (Ac-[Nle][dA]HFR[dW][dF]RFG-OH) the EC50 (human MC3R) was 357 nM and the “MC3R selectivity (relative to MC4R)” value (human MC4R) was 8.

For CCCC[C@H](NC(C)=O)C(=O)N[C@H](C)C(=O)N[C@@H](Cc1c[nH]cn1)C(=O)N[C@@H](Cc1ccc(I)cc1)C(=O)N[C@@H](CCCNC(=N)N)C(=O)N[C@H](Cc1c[nH]c2ccccc12)C(=O)NCC(N)=O [CTX-1543, Nle-D-Ala-His-Phe(4-I)-Arg-D-Trp-Gly] (Ac-[Nle][dA]H[Phe(4-I)]R[dW]G-NH2), the EC50 (human MC3R) was 3.1 nM and the “MC3R selectivity (relative to MC4R)” value (human MC4R) was 202.

In the case of CSCC[C@H](NC(=O)[C@@H](N)C(C)C)C(=O)NCC(=O)N[C@@H](Cc1c[nH]cn1)C(=O)N[C@@H](Cc1ccccc1)C(=O)N[C@@H](CCCNC(=N)N)C(=O)N[C@H](Cc1c[nH]c2ccccc12)C(=O)N[C@@H](CC(=O)O)C(=O)N[C@@H](CCCNC(=N)N)C(=O)N[C@@H](Cc1ccccc1)C(=O)NCC(=O)O [CTX-1546, Val-Met-Gly-His-Phe-Arg-D-Trp-Asp-Arg-Phe-Gly] (H-VMGHFR[dW]DRFG-OH), the EC50 (human MC3R) is reported as 1.7 nM and the “MC3R selectivity (relative to MC4R)” value (human MC4R) is reported as 51.

For CSCC[C@H](N)C(=O)NCC(=O)N[C@@H](Cc1c[nH]cn1)C(=O)N[C@@H](Cc1ccccc1)C(=O)N[C@@H](CCCNC(=N)N)C(=O)N[C@H](Cc1c[nH]c2ccccc12)C(=O)N[C@@H](CC(=O)O)C(=O)N[C@@H](CCCNC(=N)N)C(=O)N[C@@H](Cc1ccccc1)C(=O)NCC(=O)O [CTX-1547, Met-Gly-His-Phe-Arg-D-Trp-Asp-Arg-Phe-Gly] (H-MGHFR[dW]DRFG-OH), the EC50 (human MC3R) was 1.5 nM and the “MC3R selectivity (relative to MC4R)” value (human MC4R) was 54.

In the case of CCCC[C@H](NC(=O)[C@@H](NC(=O)[C@@H](N)Cc1ccc(O)cc1)C(C)C)C(=O)N[C@H](C)C(=O)N[C@@H](Cc1c[nH]cn1)C(=O)N[C@@H](Cc1ccc(Cl)cc1)C(=O)N[C@@H](CCCNC(=N)N)C(=O)N[C@H](Cc1c[nH]c2ccccc12)C(=O)N[C@@H](CC(=O)O)C(=O)N[C@@H](CCCNC(=N)N)C(=O)N[C@@H](Cc1ccccc1)C(=O)NCC(=O)O [CTX-2121, Tyr-Val-Nle-D-Ala-His-Phe(4-Cl)-Arg-D-Trp-Asp-Arg-Phe-Gly] (H-YV[Nle][dA]H[Phe(4-Cl)]R[dW]DRFG-OH), the EC50 (human MC3R) is reported as 2.5 nM and the “MC3R selectivity (relative to MC4R)” value (human MC4R) is reported as 93.

Reference: US20240287154A1, “MC3R AGONIST PEPTIDES” (The Regents of the University of Michigan, priority 2021, published 2024)
